Target: human PAD4 (hPAD4) (Homo sapiens, UniProt Q9UM07)
Assay: RFMS Human PAD4 Functional Assay
Type: biochemical
Conditions: hPAD4 RFMS IC50, human PAD4, rapid-fire mass spectrum (RFMS) assay; 5 nM hPAD4, 250 μM BAEE
Method: RFMS Human PAD4 Functional Assay:
Compounds were solubilized in 100% DMSO to achieve a 10 mM compound concentration. Compound stock solutions were stored at RT. A series of dilutions were prepared in DMSO and mixed 8 times with 20 μL mixing volume. Final top concentration of compound in the assay is 50 μM.
0.13 μL of compound solution was added to 13 μL of 10 nM PAD4 in assay buffer. After 30 min 13 μl of 500 μM of BAEE was added in 25 mM hepes, pH 7.5, 5 mM NaCl, 1 mM DTT, 0.2 mg/ml BSA, 0.01% CHAPS, 50 μM Calcium, 5 μM TPEN was added and the reaction incubated for 90 min at 37° C. The enzymatic reaction was quenched by addition of 15 μl of 6.1N TCA, 100% Final Concentration is 20%, 35 μl of 8.5 mM phenyl glyoxal (final concentration 4 mM) is then added and the reaction is incubated for 30 min at 37° C.
After 30 minutes the plates are spun down to remove all precipitate. The enzyme reaction was quenched with an equal volume of methanol containing internal standard (modified citrulline). Samples were loaded onto the Rapid Fire RF300 system (Agilent) wherein they were first sipped for 1000 ms and then directly loaded to a C18 separations cartridge using a mixture of acetonitrile containing 0.01% formic acid for 3000 ms desalting. The flow rate of the mobile phase was 1.5 ml/min.
The dwell time for each transition was set at 200 ms, and the ESI voltage was used at 5500 with a source temperature of 400° C. Extracted ion peaks for each transition were integrated using the Rapid Fire Integrator software. Peak area of analyte was normalized with internal standard.).

Sequence of human PAD4 (hPAD4) (Q9UM07 whole entry): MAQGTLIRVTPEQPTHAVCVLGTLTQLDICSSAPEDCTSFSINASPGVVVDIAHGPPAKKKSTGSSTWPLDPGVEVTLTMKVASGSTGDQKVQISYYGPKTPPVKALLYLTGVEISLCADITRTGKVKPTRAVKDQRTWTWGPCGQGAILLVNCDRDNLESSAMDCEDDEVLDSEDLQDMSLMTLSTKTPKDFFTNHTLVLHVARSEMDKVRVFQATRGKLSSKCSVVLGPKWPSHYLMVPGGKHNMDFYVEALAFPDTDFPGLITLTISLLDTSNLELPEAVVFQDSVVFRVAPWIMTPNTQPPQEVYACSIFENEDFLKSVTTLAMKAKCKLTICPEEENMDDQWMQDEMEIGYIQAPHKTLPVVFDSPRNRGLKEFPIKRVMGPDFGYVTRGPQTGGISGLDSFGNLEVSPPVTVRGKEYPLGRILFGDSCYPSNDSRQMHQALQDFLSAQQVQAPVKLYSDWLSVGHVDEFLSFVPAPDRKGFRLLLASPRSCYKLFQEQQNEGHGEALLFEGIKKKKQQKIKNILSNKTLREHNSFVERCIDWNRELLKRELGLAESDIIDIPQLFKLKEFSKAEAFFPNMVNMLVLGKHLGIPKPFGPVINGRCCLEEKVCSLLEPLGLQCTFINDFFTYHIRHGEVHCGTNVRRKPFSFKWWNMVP

In order of falling IC50:
1. COc1cc(C(=O)N2C[C@H]3CC[C@@H]2[C@@H]3N)cc2nc(-c3cc4cccc(NCCC(C)(C)O)c4n3CC3CC3)n(C)c12 [Example 169, ((1R,4R,7R)-7-amino-2-azabicyclo[2.2.1]heptan-2-yl)(2-(1-(cyclopropylmethyl)-7-((3-hydroxy-3-methylbutyl)amino)-1H-indol-2-yl)-7-methoxy-1-methyl-1H-benzo[d]imidazol-5-yl)methanone]  0.198 µM
2. COc1cc(C(=O)N2C[C@H]3CC[C@@H]2[C@@H]3N)cc2nc(-c3cc4cccc(C5CN(C(=O)C(C)(C)C)C5)c4n3CC3CC3)n(C)c12 [Example 67, 1-[3-(2-{5-[(1R,4R,7R)-7-amino-2-azabicyclo[2.2.1]heptane-2-carbonyl]-7-methoxy-1-methyl-1H-1,3-benzodiazol-2-yl}-1-(cyclopropylmethyl)-1H-indol-7-yl)azetidin-1-yl]-2,2-dimethylpropan-1-one]  0.189 µM
3. COc1cc(C(=O)N2C[C@H]3CC[C@@H]2[C@@H]3N)cc2nc(-c3cc4cccc(C5CCC5)c4n3CC3CC3)n(C)c12 [Example 7, (1R,4R,7R)-2-{2-[7-cyclobutyl-1-(cyclopropylmethyl)-1H-indol-2-yl]-7-methoxy-1-methyl-1H-1,3-benzodiazole-5-carbonyl}-2-azabicyclo[2.2.1]heptan-7-amine]  0.158 µM
4. COc1cc(C(=O)N2C[C@H]3CC[C@@H]2[C@@H]3N)cc2nc(-c3cc4cccc(-c5cnn(C[C@@H](C)O)c5)c4n3CC3CC3)n(C)c12 [Example 138, ((1R,4R,7R)-7-amino-2-azabicyclo[2.2.1]heptan-2-yl)(2-(1-(cyclopropylmethyl)-7-(1-((R)-2-hydroxypropyl)-1H-pyrazol-4-yl)-1H-indol-2-yl)-7-methoxy-1-methyl-1H-benzo[d]imidazol-5-yl)methanone]  0.147 µM
5. COc1cc(C(=O)N2C[C@H](N)C[C@@H](F)C2)cc2nc(-c3cc4cccc(-c5ccc(O)c(F)c5)c4n3CC3CC3)n(C)c12 [Example 206, ((3R,5R)-3-amino-5-fluoropiperidin-1-yl)(2-(1-(cyclopropylmethyl)-7-(3-fluoro-4-hydroxyphenyl)-1H-indol-2-yl)-7-methoxy-1-methyl-1H-benzo[d]imidazol-5-yl)methanone]  0.145 µM
6. COc1cc2c(cc1-c1cccc3cc(-c4nc5cc(C(=O)N6C[C@H]7CC[C@@H]6[C@@H]7N)cc(OC)c5n4C)n(CC4CC4)c13)CCC(=O)N2 [Example 204, 6-(2-(5-((1R,4R,7R)-7-amino-2-azabicyclo[2.2.1]heptane-2-carbonyl)-7-methoxy-1-methyl-1H-benzo[d]imidazol-2-yl)-1-(cyclopropylmethyl)-1H-indol-7-yl)-7-methoxy-3,4-dihydroquinolin-2(1H)-one]  0.139 µM
7. COc1cc(C(=O)N2C[C@H]3CC[C@@H]2[C@@H]3N)cc2nc(-c3cc4cccc(C5CN(S(=O)(=O)c6ccccc6)C5)c4n3CC3CC3)n(C)c12 [Example 83, (1R,4R,7R)-2-(2-{7-[1-(benzenesulfonyl)azetidin-3-yl]-1-(cyclopropylmethyl)-1H-indol-2-yl}-7-methoxy-1-methyl-1H-1,3-benzodiazole-5-carbonyl)-2-azabicyclo[2.2.1]heptan-7-amine]  0.123 µM
8. COc1cc(C(=O)N2C[C@H]3CC[C@@H]2[C@@H]3N)cc2nc(-c3cc4cccc(CCO)c4n3CC3CC3)n(C)c12 [Example 35, 2-(2-{5-[(1R,4R,7R)-7-amino-2-azabicyclo[2.2.1]heptane-2-carbonyl]-7-methoxy-1-methyl-1H-1,3-benzodiazol-2-yl}-1-(cyclopropylmethyl)-1H-indol-7-yl)ethan-1-ol]  0.102 µM
9. COc1cc(C(=O)N2C[C@H]3CC[C@@H]2[C@@H]3N)cc2nc(-c3cc4cccc(-c5cnn(CCO)c5)c4n3CC3CC3)n(C)c12 [Example 141, ((R,4R,7R)-7-amino-2-azabicyclo[2.2.1]heptan-2-yl)(2-(1-(cyclopropylmethyl)-7-(1-(2-hydroxyethyl)-1H-pyrazol-4-yl)-1H-indol-2-yl)-7-methoxy-1-methyl-1H-benzo[d]imidazol-5-yl)methanone]  0.101 µM
10. COc1cc(C(=O)N2CC3CCC2[C@@H]3N)cc2nc(-c3cc4cccc(-c5cn(C)nc5-c5ccccc5F)c4n3CC3CC3)n(C)c12 (stereo partly drawn) [Example 135, ((7R)-7-amino-2-azabicyclo[2.2.1]heptan-2-yl)(2-(1-(cyclopropylmethyl)-7-(3-(2-fluorophenyl)-1-methyl-1H-pyrazol-4-yl)-1H-indol-2-yl)-7-methoxy-1-methyl-1H-benzo[d]imidazol-5-yl)methanone]  0.096 µM
11. COc1cc(C(=O)N2C[C@H]3CC[C@@H]2[C@@H]3N)cc2nc(-c3cc4cccc(CCC(C)(C)O)c4n3CC3CC3)n(C)c12 [Example 21, 4-(2-{5-[(1R,4R,7R)-7-amino-2-azabicyclo[2.2.1]heptane-2-carbonyl]-7-methoxy-1-methyl-1H-1,3-benzodiazol-2-yl}-1-(cyclopropylmethyl)-1H-indol-7-yl)-2-methylbutan-2-ol]  0.086 µM
12. COc1cc(C(=O)N2C[C@H]3CC[C@@H]2[C@@H]3N)cc2nc(-c3cc4cccc(-c5cc[nH]n5)c4n3CC3CC3)n(C)c12 [Example 127, ((1R,4R,7R)-7-amino-2-azabicyclo[2.2.1]heptan-2-yl)(2-(1-(cyclopropylmethyl)-7-(1H-pyrazol-3-yl)-1H-indol-2-yl)-7-methoxy-1-methyl-1H-benzo[d]imidazol-5-yl)methanone]  0.082 µM
13. COc1cc(C(=O)N2C[C@H](N)C[C@@H](F)C2)cc2nc(-c3cc4cccc(C5CCN(C(C)=O)CC5)c4n3CC3CC3)n(C)c12 [Example 227, 1-(4-(2-(5-((3R,5R)-3-amino-5-fluoropiperidine-1-carbonyl)-7-methoxy-1-methyl-1H-benzo[d]imidazol-2-yl)-1-(cyclopropylmethyl)-1H-indol-7-yl)piperidin-1-yl)ethan-1-one]  0.077 µM
14. COc1cc(C(=O)N2C[C@H]3CC[C@@H]2[C@@H]3N)cc2nc(-c3cc4cccc(C5CC(C(=O)N6CC(F)C6)C5)c4n3CC3CC3)n(C)c12 (single isomer, unassigned; isomer 2) [Example 201]  0.057 µM
15. COc1cc(C(=O)N2C[C@H]3CC[C@@H]2[C@@H]3N)cc2nc(-c3cc4cccc(-c5ccc(O)cc5Cl)c4n3CC3CC3)n(C)c12 [Example 93, 4-(2-{5-[(1R,4R,7R)-7-amino-2-azabicyclo[2.2.1]heptane-2-carbonyl]-7-methoxy-1-methyl-1H-1,3-benzodiazol-2-yl}-1-(cyclopropylmethyl)-1H-indol-7-yl)-3-chlorophenol]  0.053 µM
16. COc1cc(C(=O)N2C[C@H]3CC[C@@H]2[C@@H]3N)cc2nc(-c3cc4cccc(CCC(N)=O)c4n3CC3CC3)n(C)c12 [Example 20, 3-(2-{5-[(1R,4R,7R)-7-amino-2-azabicyclo[2.2.1]heptane-2-carbonyl]-7-methoxy-1-methyl-1H-1,3-benzodiazol-2-yl}-1-(cyclopropylmethyl)-1H-indol-7-yl)propanamide]  0.047 µM
17. COc1cc(C(=O)N2C[C@H]3CC[C@@H]2[C@@H]3N)cc2nc(-c3cc4cccc(Nc5c(C)nn(C)c5C)c4n3CC3CC3)n(C)c12 [Example 174, ((1R,4R,7R)-7-amino-2-azabicyclo[2.2.1]heptan-2-yl)(2-(1-(cyclopropylmethyl)-7-((1,3,5-trimethyl-1H-pyrazol-4-yl)amino)-1H-indol-2-yl)-7-methoxy-1-methyl-1H-benzo[d]imidazol-5-yl)methanone]  0.041 µM
18. COc1cc(C(=O)N2C[C@H]3CC[C@@H]2[C@@H]3N)cc2nc(-c3cc4cccc(-c5ccc(O)cc5C#N)c4n3CC3CC3)n(C)c12 [Example 193, 2-(2-(5-((1R,4R,7R)-7-amino-2-azabicyclo[2.2.1]heptane-2-carbonyl)-7-methoxy-1-methyl-1H-benzo[d]imidazol-2-yl)-1-(cyclopropylmethyl)-1H-indol-7-yl)-5-hydroxybenzonitrile]  0.033 µM
19. COc1cc(C(=O)N2C[C@H]3CC[C@@H]2[C@@H]3N)cc2nc(-c3cc4cccc(C5CN(C(N)=O)C5)c4n3CC3CC3)n(C)c12 [Example 66, 3-(2-{5-[(1R,4R,7R)-7-amino-2-azabicyclo[2.2.1]heptane-2-carbonyl]-7-methoxy-1-methyl-1H-1,3-benzodiazol-2-yl}-1-(cyclopropylmethyl)-1H-indol-7-yl)azetidine-1-carboxamide]  0.03 µM

Same assay, conditions: human PAD4, rapid-fire mass spectrum (RFMS) assay; 5 nM hPAD4, 250 μM BAEE; read-out: hPAD4 RFMS IC50

`COc1cc(C(=O)N2C[C@H](N)CC[C@@H]2C)cc2nc(-c3cc4cccc(C5CN(C(C)=O)C5)c4n3CC3CC3)n(C)c12` [Example 42, 1-(3-(2-(5-((2S,5R)-5-amino-2-methylpiperidine-1-carbonyl)-7-methoxy-1-methyl-1H-benzo[d]imidazol-2-yl)-1-(cyclopropylmethyl)-1H-indol-7-yl)azetidin-1-yl)ethan-1-one] gave an IC50 of 0.141 µM.
